# Experimental data: ChEMBL document CHEMBL1135256, “Benzimidazole-4,7-diones as inhibitors of protozoal (Toxoplasma gondii) purine nucleoside phosphorylase” (Bioorg Med Chem Lett, 2002)
# How the values were obtained:
# [1] = tested on: Purine nucleoside phosphorylase (Toxoplasma gondii); assay: Inhibition of Toxoplasma gondii purine nucleoside phosphorylase from virulent strain RH at 1 mM
# [2] = target: T1, Purine nucleoside phosphorylase (Homo sapiens) (UniProt P00491); assay: Compound was evaluated for its ability to inhibit in vitro Toxoplasma gondii purine nucleoside phosphorylase from cystic strain ME 49 at a concentration of 4 mM
# T1 sequence (whole entry): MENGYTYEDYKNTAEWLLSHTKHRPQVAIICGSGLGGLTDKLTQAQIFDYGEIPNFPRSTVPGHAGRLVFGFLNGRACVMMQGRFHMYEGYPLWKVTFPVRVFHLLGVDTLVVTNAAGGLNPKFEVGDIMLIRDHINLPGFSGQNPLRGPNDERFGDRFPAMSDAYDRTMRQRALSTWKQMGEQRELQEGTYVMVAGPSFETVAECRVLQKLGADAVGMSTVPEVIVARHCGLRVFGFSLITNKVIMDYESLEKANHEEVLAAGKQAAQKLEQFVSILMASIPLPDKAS
# [3] = tested on: Purine nucleoside phosphorylase (Toxoplasma gondii); assay: Inhibition of Toxoplasma gondii purine nucleoside phosphorylase from virulent strain RH at 4 mM
# [4] = tested on: Purine nucleoside phosphorylase (Toxoplasma gondii); assay: Inhibition of Toxoplasma gondii purine nucleoside phosphorylase from cystic strain ME 49 at 1 mM
# [5] = tested on: Purine nucleoside phosphorylase (Toxoplasma gondii); assay: Inhibition of Toxoplasma gondii purine nucleoside phosphorylase from cystic strain ME 49 at 4 mM
Compound,inhibition [1] [%],inhibition [2] [%],inhibition [3] [%],inhibition [4] [%],inhibition [5] [%]
O=C1C=CC(=O)c2c1ncn2Cc1ccc(F)cc1,80,100,88,56,
Cn1cnc2c1C(=O)C=CC2=O,55,,85,31,82
O=C1C=CC(=O)c2c1ncn2Cc1cccc(F)c1,65,,100,60,100
O=C1C=CC(=O)c2[nH]cnc21,47,,68,52,71
O=c1[nH]cnc2c1cnn2[C@@H]1O[C@H](CO)[C@@H](O)[C@H]1O,8,,28,11,22
CCCCn1cnc2c1C(=O)C=CC2=O,45,,68,53,65
O=C1C=CC(=O)c2c1nc(Cc1ccccc1)n2Cc1ccccc1,65,,80,61,78
O=C1C=CC(=O)c2c1ncn2Cc1ccccc1F,70,,87,62,89
Cc1nc2c(n1Cc1ccccc1)C(=O)C=CC2=O,54,,82,66,92
